Here are results for six molecules from US5976866A, “Screen for inhibitors of fungal IPC synthase” (Eli Lilly and Company, priority 1997, dated 1999).

Values after ≈ are worked out from the molar mass of the structure shown. Where two headings read alike, the source gives them in different places.

Type in all cases: cell-based, S. cerevisiae
In experiment [1] the test system is Strain B. As to the kind of experiment: Sensitivity to antifungal compounds (MIC), Strain B. Particulars: for MIC: Saccharomyces cerevisiae, read-out: Minimum Inhibitory Concentration. On the procedure: (§1) Strains A and B, and wild-type strain YPH499 (transformed with YEp352) were tested for sensitivity to a variety of known antifungal compounds. Cells were grown in YEPD or SC-URA (2% glucose) liquid culture and dispensed into the wells of a 96-well microtiter dish containing decreasing amounts of antifungal compounds, as in Example 2.
(§2) ^a Cells were grown in SCURA (2% glucose)

Experiment [2] concerns strains A and B. The experiment in a line: Whole-cell comparison of strains A and B (and wild type) with antifungal compounds that do not target IPC synthase. Conditions: strains A and B compared. On the procedure:
as §1

Experiment [3] has as its system YPH499 (transformed by YEp352). The experiment in a line: Sensitivity to antifungal compounds (MIC), wild-type YPH499 (YEp352). Conditions: for MIC: Saccharomyces cerevisiae, read-out: Minimum Inhibitory Concentration. On the procedure: as §1, §2
^b YPH499 is transformed by YEp352.

In experiment [4] the test system is Strain A. The experiment in a line: Sensitivity to antifungal compounds (MIC), Strain A. Conditions: for MIC: Saccharomyces cerevisiae, read-out: Minimum Inhibitory Concentration. On the procedure:
as §1, §2

Regarding `C[C@@H]1[C@H](O)[C@@H](C)/C=C/C=C/C=C/C=C/C=C/C=C/C=C/[C@H](O[C@@H]2O[C@H](C)[C@@H](O)[C@H](N)[C@@H]2O)C[C@@H]2O[C@](O)(C[C@@H](O)C[C@@H](O)[C@H](O)CC[C@@H](O)C[C@@H](O)CC(=O)O[C@H]1C)C[C@H](O)[C@H]2C(=O)O` [Amphotericin B], the MIC in experiment [1] (SC-URA (2% glucose)), in experiment [3] (SC-URA (2% glucose)) and in experiment [4] (SC-URA (2% glucose)) was 2500 µg/mL (≈ 2710 µM) throughout. Moreover, the “effect on strains A and B (in words)” value in experiment [2] is on record as “equally affected”.

In the case of `C[C@@H]1C[C@@H]([C@H](O)CC2CC(=O)NC(=O)C2)C(=O)[C@@H](C)C1` [Cycloheximide], the figures for the MIC in experiment [1], in experiment [3] and in experiment [4] were 600 µg/mL (≈ 2130 µM), 300 µg/mL (≈ 1070 µM) and 300 µg/mL (≈ 1070 µM), respectively. Also, the “effect on strains A and B (in words)” value in experiment [2] was “equally affected”.

For the molecule `OC(Cn1cncn1)(Cn1cncn1)c1ccc(F)cc1F` [Fluconazole], the MIC in experiment [1] (SC-URA (2% glucose)), in experiment [3] (SC-URA (2% glucose)) and in experiment [4] (SC-URA (2% glucose)) was over 80000 µg/mL throughout. Besides, the “effect on strains A and B (in words)” value in experiment [2] is on record as “equally affected”.

With `CCC(C)n1ncn(-c2ccc(N3CCN(c4ccc(OCC5COC(Cn6cncn6)(c6ccc(Cl)cc6Cl)O5)cc4)CC3)cc2)c1=O` (centres unmarked) [Itraconazole], the MIC in experiment [1] (SC-URA (2% glucose)), in experiment [3] (SC-URA (2% glucose)) and in experiment [4] (SC-URA (2% glucose)) was 1200 µg/mL (≈ 1700 µM) each time.

Take `C[C@@H]1[C@H](O)[C@@H](C)/C=C/C=C/CC/C=C/C=C/C=C/C=C/C(O[C@H]2O[C@H](C)[C@@H](O)[C@H](N)[C@@H]2O)CC2O[C@](O)(CC(O)C(O)CCC(O)CC(O)CC(O)CC(=O)O[C@H]1C)CC(O)C2C(=O)O` (some centres unmarked) [Nystatin]: the “Minimum Inhibitory Concentration” value in experiment [1] (SC-URA (2% glucose)), in experiment [3] (SC-URA (2% glucose)) and in experiment [4] (SC-URA (2% glucose)) was 20 mg/mL each time. Moreover, the “effect on strains A and B (in words)” value in experiment [2] was “equally affected”.

Take `CC(=O)N1CCN(c2ccc(OCC3COC(Cn4ccnc4)(c4ccc(Cl)cc4Cl)O3)cc2)CC1` (centres unmarked) [ketoconazole]: the “effect on strains A and B (in words)” value in experiment [2] is reported as “equally affected”.
